The source of these data is ChEMBL document CHEMBL1134446, “Polyamine analogue antidiarrheals: a structure-activity study” (J Med Chem, 2001).

Several values for one entry are separate records, joined by “and”; a condition that tells them apart may be missing. Equal entries are not always repeated. Some results are limits rather than exact numbers.

For data set [1], the system named is Rattus norvegicus. Briefly: Stool output of rat over the 6-h collection period when a dose of 14.3 mg/kg (35.4 administered. It is filed as functional.
The test system of data set [2] is Canis familiaris. In words: MESPM/MEHSPH Distribution in liver was determined after DESPM dosing of 4 mg/kg/day for 13 days in dog(cu dose-52.4) and sacrificed at 10 days PLD(cu dose-52 mg/kg). The class given is ADME, organism-based, Canis lupus familiaris. The following applies: in vivo, 240 h.
Data set [3] deals with Canis familiaris. Briefly: MESPM/MEHSPH Distribution in liver was determined after DESPM dosing of 6.0 mg/kg/day for 4.5 days in dog(cu dose-52.4) and sacrificed at 75 days PLD(cu dose-27 mg/kg). The class given is ADME, organism-based, Canis lupus familiaris. The note with it: in vivo, 1800 h.
Data set [4] relates to Canis familiaris. In words: Spermidine Distribution in liver was determined after DESPM dosing of 1.87 mg/kg/day for 28 days in dog(cu dose-52.4) and sacrificed at 75 days PLD(cu dose-52.4 mg/kg). It is filed as ADME, organism-based, Canis lupus familiaris. The following applies: in vivo, 1800 h.
The test system of data set [5] is Rattus norvegicus. Briefly: Percent reduction was determined by using the ratio of mean of treated animal to that of control animal at a dose of 23.5 mg/kg. The class given is functional.
Data set [6] deals with Canis familiaris. In words: Spermine Distribution in kidney was determined after DESPM dosing of 6.0 mg/kg/day for 4.5 days in dog(cu dose-52.4) and sacrificed at 10 days PLD(cu dose-27 mg/kg). The class given is ADME, organism-based, Canis lupus familiaris. The following applies: in vivo, 240 h.
The subject of data set [7] is Canis familiaris. Briefly: Spermidine Distribution in kidney was determined after DESPM dosing of 6.0 mg/kg/day for 4.5 days in dog(cu dose-52.4) and sacrificed at 75 days PLD(cu dose-27 mg/kg). The class given is ADME, organism-based, Canis lupus familiaris. The note with it: in vivo, 1800 h.
For data set [8], the system named is Canis familiaris. Briefly: Spermidine Distribution in liver was determined after DESPM dosing of 8.0 mg/kg/day for 4.5 days in dog(cu dose-52.4) and sacrificed at 10 days PLD(cu dose-36 mg/kg). It is filed as ADME, organism-based, Canis lupus familiaris. The following applies: in vivo, 240 h.
The test system of data set [9] is Rattus norvegicus. Briefly: Percent reduction was determined by using the ratio of mean of treated animal to that of control animal at a dose of 94 mg/kg. The class given is functional.
Data set [10] concerns Canis familiaris. Briefly: MESPM/MEHSPH Distribution in kidney was determined after DESPM dosing of 4 mg/kg/day for 13 days in dog(cu dose-52.4) and sacrificed at 75 days PLD(cu dose-52 mg/kg). The note with it: in vivo, 1800 h. It is filed as ADME, organism-based, Canis lupus familiaris.
Data set [11] relates to Rattus norvegicus. In words: Stool output of rat over the 6-h collection period when a dose of 4.7 mg/kg (11.6 administered. It is filed as functional.
For data set [12], the system named is Canis familiaris. Briefly: MESPM/MEHSPH Distribution in kidney was determined after DESPM dosing of 1.87 mg/kg/day for 28 days in dog(cu dose-52.4) and sacrificed at 10 days PLD(cu dose-52.4 mg/kg). It is filed as ADME, organism-based, Canis lupus familiaris. The note with it: in vivo, 240 h.
The test system of data set [13] is Canis familiaris. Briefly: Spermine Distribution in kidney was determined after DESPM dosing of 4 mg/kg/day for 13 days in dog(cu dose-52.4) and sacrificed at 10 days PLD(cu dose-52 mg/kg). The following applies: in vivo, 240 h. It is filed as ADME, organism-based, Canis lupus familiaris.
Data set [14] relates to Canis familiaris. In words: Spermidine Distribution in kidney was determined after DESPM dosing of 8.0 mg/kg/day for 4.5 days in dog(cu dose-52.4) and sacrificed at 10 days PLD(cu dose-36 mg/kg). The class given is ADME, organism-based, Canis lupus familiaris. The note with it: in vivo, 240 h.
Data set [15] concerns Canis familiaris. Briefly: Spermine Distribution in kidney was determined after DESPM dosing of 4 mg/kg/day for 13 days in dog(cu dose-52.4) and sacrificed at 75 days PLD(cu dose-52 mg/kg). The class given is ADME, organism-based, Canis lupus familiaris. The note with it: in vivo, 1800 h.
Data set [16] concerns Canis familiaris. Briefly: putrescine Distribution in liver was determined after DESPM dosing of 6.0 mg/kg/day for 4.5 days in dog(cu dose-52.4) and sacrificed at 10 days PLD(cu dose-27 mg/kg). The class given is ADME, organism-based, Canis lupus familiaris. The following applies: in vivo, 240 h.
Data set [17] has as its system Canis familiaris. In words: Distribution in liver was determined after DESPM dosing of 1.87 mg/kg/day for 28 days in dog(cu dose-52.4) and sacrificed at 10 days PLD(cu dose-52.4 mg/kg). It is filed as ADME, organism-based, Canis lupus familiaris. The note with it: in vivo, 240 h.
Data set [18] deals with Canis familiaris. Briefly: Distribution in kidney was determined after DEHSPM dosing of 2.0 mg/kg/day for 29 days in dog(cu dose-52.4) and sacrificed at 10 days PLD(cu dose-22 mg/kg). It is filed as ADME, organism-based, Canis lupus familiaris. The note with it: in vivo, 240 h.
Data set [19] has as its system Canis familiaris. In words: Distribution in liver was determined after DESPM dosing of 6.0 mg/kg/day for 4.5 days in dog(cu dose-52.4) and sacrificed at 75 days PLD(cu dose-27 mg/kg). The class given is ADME, organism-based, Canis lupus familiaris. The note with it: in vivo, 1800 h.
Data set [20] deals with Canis familiaris. Briefly: Distribution in kidney was determined after DESPM dosing of 4 mg/kg/day for 13 days in dog(cu dose-52.4) and sacrificed at 10 days PLD(cu dose-52 mg/kg). It is filed as ADME, organism-based, Canis lupus familiaris. The note with it: in vivo, 240 h.
For data set [21], the system named is Canis familiaris. Briefly: HSPM Distribution in liver was determined after DEHSPM dosing of 2.0 mg/kg/day for 29 days in dog(cu dose-52.4) and sacrificed at 10 days PLD(cu dose-22 mg/kg). It is filed as ADME, organism-based, Canis lupus familiaris. The following applies: in vivo, 240 h.
For data set [22], the system named is Canis familiaris. In words: HSPM Distribution in liver was determined after DEHSPM dosing of 2.0 mg/kg/day for 29 days in dog(cu dose-52.4) and sacrificed at 10 days PLD(cu dose-58 mg/kg). The following applies: in vivo, 240 h. It is filed as ADME, organism-based, Canis lupus familiaris.
The test system of data set [23] is Canis familiaris. Briefly: Distribution in kidney was determined after DESPM dosing of 1.87 mg/kg/day for 28 days in dog(cu dose-52.4) and sacrificed at 75 days PLD(cu dose-52.4 mg/kg). The class given is ADME, organism-based, Canis lupus familiaris. The following applies: in vivo, 1800 h.

`CCNCCCNCCCCNCCCNCC` [BIS(ETHYL)SPERMINE]: the Stool output in the data set on Rattus norvegicus [1] is on record as <0.6 g (350g of rat weight)-1; in the data set on Rattus norvegicus [11] it was <3 g (350g of rat weight)-1. The “Wet weight of tissue” value with Canis familiaris [2] is 34 nM/g; in the data set with Canis familiaris [3], 1 nM/g; in the data set on Canis familiaris [4], 198 nM/g; with Canis familiaris [6], 654 nM/g; with Canis familiaris [7], 90 nM/g; in the data set on Canis familiaris [8], 187 nM/g. For the same molecule, the “Wet weight of tissue” value in the data set with Canis familiaris [10] amounted to 0 nM/g; in the data set on Canis familiaris [12] it was 12 nM/g; with Canis familiaris [13], 277 nM/g; in the data set with Canis familiaris [14], 66 nM/g; in the data set with Canis familiaris [15], 534 nM/g; with Canis familiaris [16] it was 87 nM/g. Also, the Reduction is 59% and 74% with Rattus norvegicus [5]; 100% in the data set on Rattus norvegicus [9].
As for `CCNCCCCNCCCCNCCCCNCC` [DIETHYLHOMOSPERMINE], the “Wet weight of tissue” value in the data set on Canis familiaris [17] was 18 nM/g; in the data set on Canis familiaris [18], 0 nM/g; with Canis familiaris [19], 0 nM/g; in the data set with Canis familiaris [20], 46 nM/g; in the data set on Canis familiaris [21] it was 668 nM/g; in the data set with Canis familiaris [22], 751 nM/g. The “Wet weight of tissue” value with Canis familiaris [23] came out at 0 nM/g.
